Test results taken from patent publication US6369093B1, “Pyrazole carboxanilide fungicide” (Bayer Aktiengesellschaft, priority 1998, dated 2002).

How the values were obtained:
[1] = tested on: Erysiphe graminis f. sp. hordei; assay: Erysiphe test (barley)/protective; format: in vivo; details: barley plants, protective spray, application rate 750 g/ha, evaluation 7 days after inoculation
Method: Erysiphe test (barley)/protective [table] To produce a suitable preparation of active compound, 1 part by weight of active compound is mixed with the stated amounts of solvent and emulsifier, and the concentrate is diluted with water to the desired concentration. To test for protective activity, young cereal plants are sprayed with the preparation of active compound at the stated application rate. 1 day after the treatment, the plants are inoculated with spores of Erysiphe graminis f. sp. hordei. The plants are then placed in a greenhouse at 70% relative atmospheric humidity and a temperature of 18° C. Evaluation is carried out 7 days after the inoculation. 0% means an efficacy which corresponds to that of the control, whereas an efficacy of 100% means that no infection is observed.

Pyrenophora teres = Pyrenophora teres test (barley)/protective; format: in vivo; details: barley plants, protective spray, application rate 250 g/ha, evaluation 7 days after inoculation
Method: [table] To produce a suitable preparation of active compound, 1 part by weight of active compound is mixed with the stated amounts of solvent and emulsifier, and the concentrate is diluted with water to the desired concentration. To test for protective activity, young plants are sprayed with the preparation of active compound at the stated application rate. After the spray coating has dried on, the plants are sprayed with a conidia suspension of Pyrenophora teres. The plants remain in an incubation cabin at 20° C. and 100% relative atmospheric humidity for 48 hours. The plants are then placed in a greenhouse at a temperature of about 20° C. and a relative atmospheric humidity of about 80%. Evaluation is carried out 7 days after the inoculation. 0% means an efficacy which corresponds to that of the control, whereas an efficacy of 100% means that no infection is observed.

Podosphaera leucotricha = assay: Podosphaera test (apple)/protective; format: in vivo; details: apple plants, protective spray, application rate 100 g/ha, evaluation 10 days after inoculation
Method: (§1) [table] To produce a suitable preparation of active compound, 1 part by weight of active compound is mixed with the stated amounts of solvent and emulsifier, and the concentrate is diluted with water to the desired concentration. To test for protective activity, young plants are sprayed with the preparation of active compound at the stated application rate. After the spray coating has dried on, the plants are inoculated with an aqueous spore suspension of the causative organism of apple mildew Podosphaera leucotricha. The plants are then placed in a greenhouse at about 23° C. and a relative atmospheric humidity of about 70%. Evaluation is carried out 10 days after the inoculation. 0% means an efficacy which corresponds to that of the control, whereas an efficacy of 100% means that no infection is observed.

Venturia inaequalis = assay: Venturia test (apple)/protective; format: in vivo; details: apple plants, protective spray, application rate 100 g/ha, evaluation 12 days after inoculation
Method: To produce a suitable preparation of active compound, 1 part by weight of active compound is mixed with the stated amounts of solvent and emulsifier, and the concentrate is diluted with water to the desired concentration.
To test for protective activity, young plants are sprayed with the preparation of active compound at the stated application rate. After the spray coating has dried on, the plants are inoculated with an aqueous conidia suspension of the causative organism of apple scab Venturia inaequalis and then remain in an incubation cabin at 20° C. and 100% relative atmospheric humidity for 1 day.
The plants are then placed in a greenhouse at about 21° C. and a relative atmospheric humidity of about 90%.
Evaluation is carried out 12 days after the inoculation. 0% means an efficacy which corresponds to that of the control, whereas an efficacy of 100% means that no infection is observed.

Sphaerotheca fuliginea = assay: Sphaerotheca test (cucumber)/protective; format: in vivo; details: cucumber plants, protective spray, application rate 100 g/ha, evaluation 10 days after inoculation
Method: as §1, with “Afier” for “After”, “Sphaerotheca fuliginea.” for “the causative organism of apple mildew Podosphaera leucotricha.”, “placed” for “placed in a greenhouse”, “70% in a greenhouse.” for “70%.”

melting point [°C] | Compound | Efficacy in % [1] [%] | Efficacy in % (Pyrenophora teres) [%] | Efficacy in % (Podosphaera leucotricha) [%] | Efficacy in % (Venturia inaequalis) [%] | Efficacy in % (Sphaerotheca fuliginea) [%]
177 | Cc1cccc(NC(=O)c2c(C)nn(C)c2F)c1-c1ccc(Cl)cc1 [Example 17] | 100 | 100 | – | – | –
103 | Cc1nn(C)c(F)c1C(=O)Nc1ccccc1-c1ccccc1C(F)(F)F [Example 4] | – | – | 97 | – | –
127 | Cc1nn(C)c(F)c1C(=O)Nc1ccccc1-c1ccc(Br)cc1 [Example 1, N-[2-(4-bromophcnyl)]-1,3-dimethyl-5-fluoro-pyrazole-4-carboxanilide] | 100 | 100 | 100 | 100 | 95
– | Cc1ccc(-c2ccccc2NC(=O)c2c(C)nn(C)c2F)cc1Cl [Example 8] | – | 100 | 98 | 100 | –
116 | Cc1nn(C)c(F)c1C(=O)Nc1ccccc1-c1cccc(C(F)(F)F)c1 [Example 9] | – | 100 | 100 | 97 | 94
144 | Cc1cccc(NC(=O)c2c(C)nn(C)c2F)c1-c1ccccc1 [Example 16] | 94 | – | – | – | –
100 | Cc1ccccc1-c1ccccc1NC(=O)c1c(C)nn(C)c1F [Example 2] | 90 | – | 96 | – | –
113 | Cc1nn(C)c(F)c1C(=O)Nc1ccccc1-c1ccccc1F [Example 5] | – | – | 99 | – | –
